Source: the NIST ThermoML archive (doi:10.1021/acs.jced.8b00492)

Experiment: mn = molality of the nth substance listed, in mol/kg
Conditions: for surface tension liquid-gas: Ring tensiometer; for viscosity / speed of sound / mass density: 100 kPa, Liquid; for viscosity: Capillary tube (Ostwald / Ubbelohde) method; for speed of sound: Frequency=3 MHz, Single path-length method; for mass density: Vibrating tube method

C1N2CN3CN1CN(C2)C3 [1,3,5,7-tetraazaadamantane] + O
Conditions	mass density [kg/m3]	speed of sound [m/s]	surface tension liquid-gas [mN/m]	viscosity [mPa·s]
293.15 K, m1 = 0.207	1004.3	1493.6	69.2	1.075
293.15 K, m1 = 0.425	1010.5	1504.9	67.4	1.168
293.15 K, m1 = 0.654	1016.6	1516.5	66.2	1.287
293.15 K, m1 = 0.897	1022.9	1528.8	65.4	1.419
293.15 K, m1 = 1.164	1029.5	1541.8	64.8	1.579
293.15 K, m1 = 1.449	1036.1	1555.9	64.4	1.711
293.15 K, m1 = 1.748	1042.9	1569.3	64	1.911
293.15 K, m1 = 2.068	1049.6	1583.3	63.7	2.142
293.15 K, m1 = 2.412	1056.3	1597.1	63.5	2.477
293.15 K, m1 = 2.779	1063.3	1611.8	63.3	2.777
293.15 K, m1 = 3.181	1070.4	1626.9	63.2	3.217
293.15 K, m1 = 3.617	1077.6	1642.5	63.1	3.698
293.15 K, m1 = 4.088	1084.9	1658.4	63	4.214
293.15 K, m1 = 4.609	1092.3	1674.7	62.9	4.991
293.15 K, m1 = 5.155	1099.8	1691.4	62.9	5.869
303.15 K, m1 = 0.207	1001.6	1519	67.5	0.88
303.15 K, m1 = 0.425	1007.7	1529.4	66.1	0.942
303.15 K, m1 = 0.654	1013.8	1539.3	65	1.025
303.15 K, m1 = 0.897	1019.9	1550	64.2	1.085
303.15 K, m1 = 1.164	1026.4	1561.1	63.5	1.193
303.15 K, m1 = 1.449	1032.9	1573.6	62.9	1.309
303.15 K, m1 = 1.748	1039.4	1585	62.5	1.472
303.15 K, m1 = 2.068	1046	1597.4	62.2	1.631
303.15 K, m1 = 2.412	1052.9	1609.3	61.9	1.875
303.15 K, m1 = 2.779	1059.7	1622.1	61.7	2.094
303.15 K, m1 = 3.181	1066.6	1635.2	61.5	2.402
303.15 K, m1 = 3.617	1073.6	1648.7	61.4	2.743
303.15 K, m1 = 4.088	1080.8	1662.4	61.3	3.092
303.15 K, m1 = 4.609	1088	1676.5	61.2	3.635
303.15 K, m1 = 5.155	1095	1690.9	61.2	4.21
313.15 K, m1 = 0.207	998	1538	66.3	0.718
313.15 K, m1 = 0.425	1004.1	1546.6	64.7	0.761
313.15 K, m1 = 0.654	1010.1	1555.4	63.5	0.806
313.15 K, m1 = 0.897	1016.1	1565	62.8	0.87
313.15 K, m1 = 1.164	1022.5	1574.7	62.1	0.936
313.15 K, m1 = 1.449	1028.9	1585.8	61.5	1.017
313.15 K, m1 = 1.748	1035.4	1595.6	61.1	1.158
313.15 K, m1 = 2.068	1041.8	1606.6	60.7	1.26
313.15 K, m1 = 2.412	1048.3	1616	60.5	1.441
313.15 K, m1 = 2.779	1055	1627.1	60.3	1.597
313.15 K, m1 = 3.181	1061.8	1638.5	60.2	1.82
313.15 K, m1 = 3.617	1068.7	1650.1	60.1	2.063
313.15 K, m1 = 4.088	1075.6	1661.9	60	2.296
313.15 K, m1 = 4.609	1082.7	1674	59.9	2.687
313.15 K, m1 = 5.155	1089.8	1687.2	59.9	3.084
323.15 K, m1 = 0.207	993.9	1549.2	65.1	0.596
323.15 K, m1 = 0.425	999.7	1557.4	63.4	0.635
323.15 K, m1 = 0.654	1005.6	1566.1	62.1	0.671
323.15 K, m1 = 0.897	1011	1574.4	61.2	0.716
323.15 K, m1 = 1.164	1018	1583	60.5	0.755
323.15 K, m1 = 1.449	1024.3	1593.1	60.1	0.819
323.15 K, m1 = 1.748	1030.7	1601.3	59.7	0.908
323.15 K, m1 = 2.068	1037.1	1611.1	59.5	0.985
323.15 K, m1 = 2.412	1043.5	1620	59.2	1.131
323.15 K, m1 = 2.779	1050.1	1629.6	59	1.233
323.15 K, m1 = 3.181	1056.8	1639.4	58.9	1.387
323.15 K, m1 = 3.617	1063.5	1649.3	58.8	1.569
323.15 K, m1 = 4.088	1070.4	1659.4	58.7	1.77
323.15 K, m1 = 4.609	1077.3	1669.7	58.6	2.027
323.15 K, m1 = 5.155	1084.2	1680.2	58.6	2.327
